From US7902373B2 (Pfizer Inc, priority 2006, dated 2011)

Each molecule was assayed against human recombinant H-PGDS (Homo sapiens, UniProt O60760) (assay: Fluorescence intensity h-PGDS TBA enzyme assay). Settings: Examples up to 622 (and 3a, 3b).
Assay type: biochemical

human recombinant H-PGDS, sequence (O60760 whole entry): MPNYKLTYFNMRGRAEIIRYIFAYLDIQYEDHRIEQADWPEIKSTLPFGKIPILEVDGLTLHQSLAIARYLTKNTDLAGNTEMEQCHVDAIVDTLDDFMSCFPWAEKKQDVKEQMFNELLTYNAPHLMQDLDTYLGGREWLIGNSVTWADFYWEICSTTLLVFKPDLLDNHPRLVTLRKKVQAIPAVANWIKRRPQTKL

SMILES	IC50 [nM]
Cn1ccnc1CN1CCC(NC(=O)c2ccc(-c3cccc(F)c3)nc2)CC1 [Example 215, 6-(3-Fluorophenyl)-N-{1-[(1-methyl-1H-imidazol-2-yl)methyl]piperidin-4-yl}nicotinamide]	0.38
O=C(NC1CCN(Cc2nccs2)CC1)c1ccc(-c2cccc(F)c2)nc1 [Example 216, 6-(3-Fluorophenyl)-N-[1-(1,3-thiazol-2-ylmethyl)piperidin-4-yl]nicotinamide]	0.36
CC(C)Oc1ccc(CN2CCC(NC(=O)c3ccc(-c4cccc(F)c4)nc3)CC2)cc1 [Example 217, 6-(3-Fluorophenyl)-N-[1-(4-isopropoxybenzyl)piperidin-4-yl]nicotinamide]	1.51
O=C(NC1CCN(Cc2cc(F)c(F)cc2F)CC1)c1ccc(-c2cccc(F)c2)nc1 [Example 218, 6-(3-Fluorophenyl)-N-[1-(245-trifluorobenzyl)piperidin-4-yl]nicotinamide]	0.448
Cn1c(CN2CCC(NC(=O)c3ccc(-c4cccc(F)c4)nc3)CC2)nc2ccccc21 [Example 219, 6-(3-Fluorophenyl)-N-{1-[(1-methyl-1H-benzimidazol-2-yl)methyl]piperidin-4-yl}nicotinamide]	0.749
COc1ccc(CN2CCC(NC(=O)c3ccc(-c4cccc(F)c4)nc3)CC2)c(OC)c1 [Example 220, N-[1-(2,4-Dimethoxybenzyl)piperidin-4-yl]-6-(3-fluorophenyl)nicotinamide]	2.42
O=C(NC1CCN(CC2CC=CCC2)CC1)c1ccc(-c2cccc(F)c2)nc1 (stereo not drawn) [Example 221, N-[1-(Cyclohex-3-en-1-ylmethyl)piperidin-4-yl]-6-(3-fluorophenyl)nicotinamide]	0.446
COc1ccc(CN2CCC(NC(=O)c3ccc(-c4cccc(F)c4)nc3)CC2)cc1 [Example 222, 6-(3-Fluorophenyl)-N-[1-(4-methoxybenzyl)piperidin-4-yl]nicotinamide]	6.64
O=C(NC1CCN(Cc2cc(Br)ccc2O)CC1)c1ccc(-c2cccc(F)c2)nc1 [Example 223, N-[1-(5-Bromo-2-hydroxybenzyl)piperidin-4-yl]-6-(3-fluorophenyl)nicotinamide]	0.928
COc1cccc(CN2CCC(NC(=O)c3ccc(-c4cccc(F)c4)nc3)CC2)c1 [Example 224, 6-(3-Fluorophenyl)-N-[1-(3-methoxybenzyl)piperidin-4-yl]nicotinamide]	0.342
O=C(NC1CCN(Cc2ccc(Cl)cc2)CC1)c1ccc(-c2cccc(F)c2)nc1 [Example 225, N-[1-(4-Chlorobenzyl)piperidin-4-yl]-6-(3-fluorophenyl)nicotinamide]	2.48
COc1ccc2[nH]cc(CN3CCC(NC(=O)c4ccc(-c5cccc(F)c5)nc4)CC3)c2c1 [Example 226, 6-(3-Fluorophenyl)-N-{1-[(5-methoxy-1H-indol-3-yl)methyl]piperidin-4-yl}nicotinamide]	1.42
N#Cc1ccc(CN2CCC(NC(=O)c3ccc(-c4cccc(F)c4)nc3)CC2)cc1 [Example 227, N-[1-(4-Cyanobenzyl)piperidin-4-yl]-6-(3-fluorophenyl)nicotinamide]	0.815
CCOc1ccc(CN2CCC(NC(=O)c3ccc(-c4cccc(F)c4)nc3)CC2)cc1OCC [Example 228, N-[1-(3,4-Diethoxybenzyl)piperidin-4-yl]-6-(3-fluorophenyl)nicotinamide]	2.5
CCOc1ccccc1CN1CCC(NC(=O)c2ccc(-c3cccc(F)c3)nc2)CC1 [Example 229, N-[1-(2-Ethoxybenzyl)piperidin-4-yl]-6-(3-fluorophenyl)nicotinamide]	0.509
COc1cccc(CN2CCC(NC(=O)c3ccc(-c4cccc(F)c4)nc3)CC2)c1OC [Example 230, N-[1-(2,3-Dimethoxybenzyl)piperidin-4-yl]-6-(3-fluorophenyl)nicotinamide]	0.53
COc1ccccc1CN1CCC(NC(=O)c2ccc(-c3cccc(F)c3)nc2)CC1 [Example 231, 6-(3-Fluorophenyl)-N-[1-(2-methoxybenzyl)piperidin-4-yl]nicotinamide]	0.552
Cc1c(CN2CCC(NC(=O)c3ccc(-c4cccc(F)c4)nc3)CC2)c(=O)n(-c2ccccc2)n1C [Example 232, N-{1-[(1,5-Dimethyl-3-oxo-2-phenyl-2,3-dihydro-1H-pyrazol-4-yl)methyl]piperidin-4-yl}-6-(3-fluorophenyl)nicotinamide]	2.71
O=C(NC1CCN(Cc2cccc(Cl)c2)CC1)c1ccc(-c2cccc(F)c2)nc1 [Example 233, N-[1-(3-Chlorobenzyl)piperidin-4-yl]-6-(3-fluorophenyl)nicotinamide]	0.352
CCOc1ccc(CN2CCC(NC(=O)c3ccc(-c4cccc(F)c4)nc3)CC2)cc1 [Example 234, N-[1-(4-Ethoxybenzyl)piperidin-4-yl]-6-(3-fluorophenyl)nicotinamide]	1.65
COc1ccc(CN2CCC(NC(=O)c3ccc(-c4cccc(F)c4)nc3)CC2)cc1C [Example 235, 6-(3-Fluorophenyl)-N-[1-(4-methoxy-3-methylbenzyl)piperidin-4-yl]nicotinamide]	1.98

SMILES	IC50 [nM]
O=C(NC1CCN(Cc2ccc(F)c(F)c2F)CC1)c1ccc(-c2cccc(F)c2)nc1 [Example 236, 6-(3-Fluorophenyl)-N-[1-(2,3,4-trifluorobenzyl)piperidin-4-yl]nicotinamide]	0.577
O=C(NC1CCN(Cc2ccc(F)cc2F)CC1)c1ccc(-c2cccc(F)c2)nc1 [Example 237, N-[1-(2,4-Difluorobenzyl)piperidin-4-yl]-6-(3-fluorophenyl)nicotinamide]	0.698
N#Cc1cccc(CN2CCC(NC(=O)c3ccc(-c4cccc(F)c4)nc3)CC2)c1 [Example 238, N-[1-(3-Cyanobenzyl)piperidin-4-yl]-6-(3-fluorophenyl)nicotinamide]	0.135
O=C(NC1CCN(Cc2cc(F)ccc2F)CC1)c1ccc(-c2cccc(F)c2)nc1 [Example 239, N-[1-(2,5-Difluorobenzyl)piperidin-4-yl]-6-(3-fluorophenyl)nicotinamide]	0.245
O=C(NC1CCN(Cc2cccc(F)c2F)CC1)c1ccc(-c2cccc(F)c2)nc1 [Example 240, N-[1-(2,3-Difluorobenzyl)piperidin-4-yl]-6-(3-fluorophenyl)nicotinamide]	0.181
O=C(NC1CCN(Cc2ccc3c(c2)OCCO3)CC1)c1ccc(-c2cccc(F)c2)nc1 [Example 241, N-[1-(2,3-Dihydro-14-benzodioxin-6-ylmethyl)piperidin-4-yl]-6-(3-fluorophenyl)nicotinamide]	2.19
Cn1cc(CN2CCC(NC(=O)c3ccc(-c4cccc(F)c4)nc3)CC2)c2ccccc21 [Example 242, 6-(3-Fluorophenyl)-N-{1-[(1-methyl-1H-indol-3-yl)methyl]piperidin-4-yl}nicotinamide]	0.781
CC(=O)n1cc(CN2CCC(NC(=O)c3ccc(-c4cccc(F)c4)nc3)CC2)c2ccccc21 [Example 243, N-{1-[(1-Acetyl-1H-indol-3-yl)methyl]piperidin-4-yl}-6-(3-fluorophenyl)nicotinamide]	1.03
O=C(NC1CCN(Cc2c(F)cccc2F)CC1)c1ccc(-c2cccc(F)c2)nc1 [Example 244, N-[1-(2,6-Difluorobenzyl)piperidin-4-yl]-6-(3-fluorophenyl)nicotinamide]	0.288
COc1ccc(CN2CCC(NC(=O)c3ccc(-c4cccc(F)c4)nc3)CC2)cc1Br [Example 245, N-[1-(3-Bromo-4-methoxybenzyl)piperidin-4-yl]-6-(3-fluorophenyl)nicotinamide]	1.2
O=C(NC1CCN(Cc2cnc3ccccc3c2)CC1)c1ccc(-c2cccc(F)c2)nc1 [Example 246, 6-(3-Fluorophenyl)-N-[1-(quinolin-3-ylmethyl)piperidin-4-yl]nicotinamide]	1.97
COc1ccc(CN2CCC(NC(=O)c3ccc(-c4cccc(F)c4)nc3)CC2)cc1F [Example 247, N-[1-(3-Fluoro-4-methoxybenzyl)piperidin-4-yl]-6-(3-fluorophenyl)nicotinamide]	0.653
O=C(NC1CCN(Cc2cc(F)cc(F)c2)CC1)c1ccc(-c2cccc(F)c2)nc1 [Example 248, N-[1-(3,5-Difluorobenzyl)piperidin-4-yl]-6-(3-fluorophenyl)nicotinamide]	1.05
CCOc1cc(CN2CCC(NC(=O)c3ccc(-c4cccc(F)c4)nc3)CC2)ccc1OC [Example 249, N-[1-(3-Ethoxy-4-methoxybenzyl)piperidin-4-yl]-6-(3-fluorophenyl)nicotinamide]	1.17
Cc1nn(C)c(C)c1CN1CCC(NC(=O)c2ccc(-c3cccc(F)c3)nc2)CC1 [Example 250, 6-(3-Fluorophenyl)-N-{1-[(1,3-trimethyl-1H-pyrazol-4-yl)methyl]piperidin-4-yl}nicotinamide]	0.409
CC(C)(C)CN1CCC(NC(=O)c2ccc(-c3cccc(F)c3)nc2)CC1 [Example 251, N-[1-(2,2-Dimethylpropyl)piperidin-4-yl]-6-(3-fluorophenyl)nicotinamide]	0.623
O=C(NC1CCN(Cc2c[nH]c3ccc(F)cc23)CC1)c1ccc(-c2cccc(F)c2)nc1 [Example 252, N-{1-[(5-Fluoro-1H-indol-3-yl)methyl]piperidin-4-yl}-6-(3-fluorophenyl)nicotinamide]	0.865
CCOc1ccc(CN2CCC(NC(=O)c3ccc(-c4cccc(F)c4)nc3)CC2)cc1OC [Example 253, N-[1-(4-Ethoxy-3-methoxybenzyl)piperidin-4-yl]-6-(3-fluorophenyl)nicotinamide]	1.45
O=C(NC1CCN(Cc2c[nH]c(=O)[nH]c2=O)CC1)c1ccc(-c2cccc(F)c2)nc1 [Example 254, N-{1-[(2,4-Dioxo-1234-tetrahydropyrimidin-5-yl)methyl]piperidin-4-yl}-6-(3-fluorophenyl)nicotinamide]	1.68
O=C(NC1CCN(Cc2ccccc2OCCO)CC1)c1ccc(-c2cccc(F)c2)nc1 [Example 255, 6-(3-Fluorophenyl)-N-{1-[2-(2-hydroxyethoxy)benzyl]piperidin-4-yl}nicotinamide]	0.738
O=C(NC1CCN(Cc2cccc(OCCO)c2)CC1)c1ccc(-c2cccc(F)c2)nc1 [Example 256, 6-(3-Fluorophenyl)-N-{1-[3-(2-hydroxyethoxy)benzyl]piperidin-4-yl}nicotinamide]	0.397
